Marks after values point to notes of the source that are not given here.
What was measured:
[1] = test system: Arachidonic Acid-Induced Cellular Infiltration; assay: Arachidonic acid-induced air pouch inflammation; assay type: in vivo, Lewis rats; details: 100 mg/kg; 3 hours after arachidonic acid
Source text: (§1) In the following Examples where mice were used, they were male Balb/c mice (20-28 g), and where rats were used, they were male Lewis rats (180-210 g). All mice and rats were obtained from Charles River Breeding Laboratories, Kingston, N.Y. Within a single experiment, mice and rats were sex and age matched.
(§2) The compounds of Formula (IA) were used either as the free base or in the appropriate salt form. Levamisole was used as the hydrochloride salt. The compounds were homogenized in 0.5% tragacanth. Compounds were administered by gavage at the indicated dose in a final volume of 10 ml/kg. Nordihydroguaiaretic acid (NDGA) was solubilized in dimethylacetamide and diluted with olive oil for subcutaneous administration.
Rats were shaved on the dorsal flank, and then injected subcutaneously one day later with 20 ml of air to form a defined pouch, by the method of Sedgwick et al., J. Pathology, 141, 483-495 (1983). The air pouch was reinflated as necessary over the next 6 days. To assay anti-inflammatory activity, animals were treated orally with test compound or vehicle (10 ml/kg) one hour before injection of 2.0 ml of a 2.0% carrageenan suspension containing 200 units/ml penicillin and 100 »g/ml streptomycin into the air pouch. In other experiments, 5 ml of 0.1% arachidonic acid in 0.2 M bicarbonate buffer was injected two hours after drug treatment. Animals were sacrificed using CO₂ three hours after instillation of irritant. The exudate was then aspirated from the pouch and neutrophil count and differential cell count were measured.

[2] = biological target: T1, 5-Lipoxygenase (Rattus norvegicus, UniProt P12527); assay: 5-Lipoxygenase activity (5-HETE) in 10,000 x g supernatant of RBL-1 cells; assay type: biochemical; details: text b252; RBL-1 cell extracts; read-out: IC₅₀ 5-HETE synthesis
T1 construct: The activities of these enzymes in extracts of RBL-1 cells were assayed; host or cells: RBL-1 cells, disrupted by nitrogen cavitation; 10,000 x g or 100,000 x g supernatant
T1 sequence (P12527 1-673): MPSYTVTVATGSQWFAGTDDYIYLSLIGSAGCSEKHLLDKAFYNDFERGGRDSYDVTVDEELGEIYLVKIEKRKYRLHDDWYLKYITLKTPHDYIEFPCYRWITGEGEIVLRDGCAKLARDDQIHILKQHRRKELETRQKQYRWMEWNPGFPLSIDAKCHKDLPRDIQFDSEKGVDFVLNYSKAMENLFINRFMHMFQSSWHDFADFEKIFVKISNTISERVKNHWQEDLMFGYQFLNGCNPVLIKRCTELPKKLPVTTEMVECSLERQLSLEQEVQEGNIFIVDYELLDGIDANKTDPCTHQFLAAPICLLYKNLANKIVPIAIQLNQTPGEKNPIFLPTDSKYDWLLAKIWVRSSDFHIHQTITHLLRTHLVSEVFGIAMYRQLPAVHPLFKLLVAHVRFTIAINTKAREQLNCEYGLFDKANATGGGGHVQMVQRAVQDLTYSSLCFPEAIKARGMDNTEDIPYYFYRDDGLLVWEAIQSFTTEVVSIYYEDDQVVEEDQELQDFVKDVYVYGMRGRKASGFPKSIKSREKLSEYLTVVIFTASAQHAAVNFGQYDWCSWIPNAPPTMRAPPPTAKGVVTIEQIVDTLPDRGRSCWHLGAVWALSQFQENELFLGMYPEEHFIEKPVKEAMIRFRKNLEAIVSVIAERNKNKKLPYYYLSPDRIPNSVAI
Method: For in vitro experiments, compounds were dissolved at appropriate concentrations in ethanol or DMSO (dimethylsulfoxide) (final concentration <1.0%) and then diluted to final concentrations using the buffers indicated in the text.
Harvested cells were washed with 50 mM sodium phosphate buffer, pH 7.0, containing 1 mM EDTA and 0.1% gelatin, resuspended in fresh buffer (5 x 10⁷ cells/ml) and disrupted by nitrogen cavitation using the Parr bomb at 750 psi for 10 min. The broken cell extract was then centrifuged at 10,000 x g for 20 minutes and the supernatant centrifuged at 100,000 x g for 60 minutes. Aliquots (0.25 mls) of the supernatant were preincubated with or without drugs for 10 min, after which 10 ul CaCl₂ (50 mM) was added and the reaction was initiated with 2.5 ul of 2.5 mM arachidonic acid-1-¹⁴C (final concentration was 25 mM; specific activity 20,000 dpm/nmole). After incubation for 3 min at 37°C, the reaction was terminated by addition of 2 volumes (0.5 ml) ice cold acetone and the sample was allowed to deproteinize on ice for 10 min prior to centrifugation at 1,000 x g for 10 min. The deproteinized supernatant was adjusted to pH 3.5 with 2N formic acid and extracted with 2 volumes of ice cold ethyl acetate. […] Arachidonic acid, 5-HETE, di-HETE and PGD₂ were quantified with a Berthold LB 2832 autoscanner.

[3] = biological target: T2, 5-LO (Rattus norvegicus, UniProt P12527); assay: di-HETE production by RBL-1 high speed supernatant; assay type: biochemical
T2 construct: The activities of these enzymes in extracts of RBL-1 cells were assayed; host or cells: RBL-1 cells, disrupted by nitrogen cavitation; 10,000 x g or 100,000 x g supernatant
T2 sequence (P12527 1-673): T1 sequence (P12527 1-673)
Method in brief: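 RBL-1 cell 100,000 x g supernatant was preincubated 10 min with compound, then given CaCl₂ and 25 uM [¹⁴C]arachidonic acid for 3 min at 37°C. 5-HETE and di-HETE were quantified by TLC radioscanning. A variant re-centrifuged the supernatant and incubated 5 min at 5°C with 2 mM CaCl₂.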

[4] = test system: Arachidonic Acid-Induced Rat Paw Edema; assay: Arachidonic acid-induced rat paw swelling; assay type: in vivo, Lewis rats; details: 100 mg/kg, read at 2 hours
Source text: as §1, §2

With `Fc1ccc(-c2nc3n(c2-c2ccncc2)CCS3)cc1` [Compound 1, 5-(4-pyridyl)-6-(4-fluorophenyl)-2,3-dihydroimidazo[2,1-b]thiazole] as the molecule, how does the “Cellular Infiltrate (Total x 10⁻⁶) MN” value [1] read?
The value was 1.5 ± 1.1^d x 10⁻⁶.

What about the “Cellular Infiltrate (Total x 10⁻⁶) PMN” value [1] of the same molecule?
Its value is 1.2 ± 0.7^e x 10⁻⁶.

What about the “Exudate Volume” value [1] of the same molecule?
Its value is 2.6 ± 0.8 mL.

And the IC50 [2]?
The IC50 was 75 µM.

What about the “Di-HETE (nM/ml)” value ([3]; 1 uM) of the same molecule?
Its value is 1.56 ± 0.06 nM/ml.

What about the inhibition at 1 µM ([3]; 1 uM, read-out: % Control (Di-HETE)) of the same molecule?
The inhibition at 1 µM was 19.7%.

And the “Di-HETE (nM/ml)” value ([3]; 3.3 uM)?
Its value is 1.34 ± 0.12 nM/ml.

And the inhibition at 3.3 µM ([3]; 3.3 uM, read-out: % Control (Di-HETE))?
Its inhibition at 3.3 µM is 30.9%.

What about the “Di-HETE (nM/ml)” value ([3]; 10 uM) of the same molecule?
Its value is 0.88 ± 0.21 nM/ml.

And the inhibition at 10 µM ([3]; 10 uM, read-out: % Control (Di-HETE))?
The inhibition at 10 µM was 54.8%.

What about the “Di-HETE (nM/ml)” value ([3]; 33 uM) of the same molecule?
Its value is 0.40 ± 0.08 nM/ml.

And the inhibition at 33 µM ([3]; 33 uM, read-out: % Control (Di-HETE))?
The inhibition at 33 µM was 79.6%.

What about the “Di-HETE (nM/ml)” value ([3]; 100 uM) of the same molecule?
The value was 0.03 ± 0.04 nM/ml.

What about the inhibition at 100 µM ([3]; 100 uM, read-out: % Control (Di-HETE)) of the same molecule?
Its inhibition at 100 µM is 98.3%.

And the IC50 ([3]; soluble extract of RBL-1 cells containing only lipoxygenase activity, read-out: IC₅₀ eicosanoid formation (di-HETE production))?
Its IC50 is 7.5 µM.

And the “Change in Paw Volume” value ([4]; one hour before arachidonic acid)?
The value was 0.06 ± 0.05 mL.

What about the “(% Inhibition) of change in paw volume” value [4] of the same molecule?
Its value is 78%.
